Laboratory results published in ChEMBL document CHEMBL1201862, “PubChem BioAssay data set” (2004).
Active and inactive are the calls of the source.

Key:
[1] = StAR promoter reporter inhibition counter-screen, dose response, counter-screen for LRH-1 inverse agonist project, cell-based, luminescence, luciferase reporter (AID 651969); type: functional
[2] = biological target: Nuclear receptor subfamily 5 group A member 2 (Homo sapiens, UniProt O00482); type: functional, cell-based;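 note: HEK293T cells transfected with LRH-1 and a StAR promoter luciferase reporter; potency for inhibitors that lower LRH-1 driven reporter light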
Nuclear receptor subfamily 5 group A member 2, sequence (O00482 whole entry): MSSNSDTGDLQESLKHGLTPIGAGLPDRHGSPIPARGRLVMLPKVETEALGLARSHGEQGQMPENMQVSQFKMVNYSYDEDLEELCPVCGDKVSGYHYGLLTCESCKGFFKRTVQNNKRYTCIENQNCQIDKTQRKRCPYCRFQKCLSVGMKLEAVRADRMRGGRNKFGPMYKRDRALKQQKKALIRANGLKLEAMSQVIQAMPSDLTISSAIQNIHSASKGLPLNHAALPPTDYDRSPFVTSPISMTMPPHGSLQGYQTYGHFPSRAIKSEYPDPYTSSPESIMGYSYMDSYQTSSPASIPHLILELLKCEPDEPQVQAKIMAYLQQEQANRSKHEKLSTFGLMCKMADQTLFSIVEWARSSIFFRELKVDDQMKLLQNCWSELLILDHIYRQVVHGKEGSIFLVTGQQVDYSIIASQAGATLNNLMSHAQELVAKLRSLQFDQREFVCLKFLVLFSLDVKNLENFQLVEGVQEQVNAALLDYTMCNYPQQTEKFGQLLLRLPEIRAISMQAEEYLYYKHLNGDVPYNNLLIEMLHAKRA

[3] = biological target: Steroidogenic factor 1 (Homo sapiens, UniProt Q13285); assay: Counterscreen for inverse agonists of the liver receptor homolog-1 (LRH-1; NR5A2): Luminescence-based cell-based high throughput dose response assay to identify inverse agonists of the Steroidogenic Factor 1 Nuclear Receptor (SF1; NR5A1).; type: functional
Steroidogenic factor 1, sequence (Q13285 whole entry): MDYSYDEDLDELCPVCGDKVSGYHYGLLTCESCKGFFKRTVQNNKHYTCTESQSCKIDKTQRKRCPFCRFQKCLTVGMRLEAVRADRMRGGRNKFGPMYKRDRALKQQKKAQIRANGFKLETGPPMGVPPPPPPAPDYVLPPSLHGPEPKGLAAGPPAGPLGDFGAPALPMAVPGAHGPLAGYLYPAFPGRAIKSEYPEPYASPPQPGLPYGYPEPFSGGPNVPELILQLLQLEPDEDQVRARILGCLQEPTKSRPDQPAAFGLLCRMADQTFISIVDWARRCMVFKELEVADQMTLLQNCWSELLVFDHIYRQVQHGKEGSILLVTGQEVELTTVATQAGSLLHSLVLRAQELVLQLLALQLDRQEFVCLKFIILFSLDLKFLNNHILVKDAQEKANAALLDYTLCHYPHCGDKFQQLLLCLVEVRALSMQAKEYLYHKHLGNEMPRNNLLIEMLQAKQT

[4] = biological target: E3 ubiquitin-protein ligase Mdm2 (Homo sapiens, UniProt Q00987); assay: enhancers of MDM2-luciferase reporter signal, concentration-effect titration, project on inhibitors of MDM2 ubiquitin ligase, cellular assay, luminescent readout, 384-well plate format (AID 1394); type: functional;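 note: MDM2 E3 inhibitors raise luminescence so EC50 is for signal enhancement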
E3 ubiquitin-protein ligase Mdm2, sequence (Q00987 whole entry): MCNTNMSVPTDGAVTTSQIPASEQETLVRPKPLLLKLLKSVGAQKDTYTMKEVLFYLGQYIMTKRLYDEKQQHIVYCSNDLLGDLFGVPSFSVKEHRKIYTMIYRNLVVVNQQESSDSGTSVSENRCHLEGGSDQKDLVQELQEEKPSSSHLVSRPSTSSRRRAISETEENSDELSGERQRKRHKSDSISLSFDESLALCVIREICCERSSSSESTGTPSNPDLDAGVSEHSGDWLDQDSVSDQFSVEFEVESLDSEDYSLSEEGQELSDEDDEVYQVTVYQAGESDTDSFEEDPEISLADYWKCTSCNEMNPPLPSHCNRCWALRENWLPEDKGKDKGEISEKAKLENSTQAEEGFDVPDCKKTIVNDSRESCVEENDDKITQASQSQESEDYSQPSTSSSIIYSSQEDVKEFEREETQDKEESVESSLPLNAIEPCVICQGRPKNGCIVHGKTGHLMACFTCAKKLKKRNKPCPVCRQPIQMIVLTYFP

[5] = cytotoxicity in HEK-293T cells, dose response, cytotoxicity control for TCR NF-kB inhibitor project, luminescence, T-cell screen hits (AID 489026); type: functional, cell-based;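 note: cells exposed to compound about 14 hours before the viability readout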
[6] = cytotoxicity toward DRD oncogenic fibroblasts, dose response, cell-based, non-viral oncogenic, luminescence (AID 1934); type: functional; conditions: Homo sapiens
[7] = tested on: BJ; assay: cytotoxicity toward BJ-TERT-LT-ST fibroblasts, dose response, cell-based, RAS-independent, luminescence (AID 1935); type: functional; conditions: Homo sapiens;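 note: BJ fibroblasts immortalized with TERT plus LT and ST oncogenes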
[8] = tested on: BJ; assay: cytotoxicity toward BJ-TERT fibroblasts, dose response, cell-based, RAS-independent, luminescence (AID 1933); type: functional; conditions: Homo sapiens
[9] = tested on: BJ; assay: cells; type: functional, cell-based; conditions: Homo sapiens
[10] = P. falciparum Dd2 growth inhibitors, dose response, SYBR Green, dry powder samples (AID 1159566); type: functional, cell-based;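 note: potency for growth inhibition with lower SYBR green DNA signal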
[11] = P. falciparum 3D7-ScDHODH growth inhibitors, dose response, SYBR Green, dry powder samples (AID 1159570); type: functional, cell-based;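 note: parasite growth measured after 72 hours of compound exposure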
[12] = HepG2 cell cytotoxicity, dose response, cytotoxicity control, plate reader, dry powder samples (AID 1159569); type: functional, cell-based;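 note: inhibitor potency with signal falling toward the positive control level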
[13] = P. falciparum Dd2 growth inhibitors, dose response, SYBR Green, cherry-picked samples (AID 1159567); type: functional, cell-based
[14] = P. falciparum ATP4 D1247Y mutant growth inhibitors, dose response, NITD609-resistant line, SYBR Green, dry powder (AID 1159571); type: functional, cell-based;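 note: parasites synchronized at ring stage by sorbitol before testing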
[15] = biological target: T1, Beta-lactamase (Pseudomonas aeruginosa, UniProt Q79MP6); assay: IMP-1 metallo-beta-lactamase inhibitors, dose response, selectivity assay for VIM-2 inhibitor project, biochemical, epi-absorbance (AID 1920)
T1 sequence (Q79MP6 whole entry): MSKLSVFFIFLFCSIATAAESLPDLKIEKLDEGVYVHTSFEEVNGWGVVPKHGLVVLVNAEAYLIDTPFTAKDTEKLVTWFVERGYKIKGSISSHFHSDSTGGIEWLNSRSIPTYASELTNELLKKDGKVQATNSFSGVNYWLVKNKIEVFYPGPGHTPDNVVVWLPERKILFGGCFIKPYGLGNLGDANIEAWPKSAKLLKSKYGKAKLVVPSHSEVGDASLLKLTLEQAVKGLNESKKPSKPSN

[16] = biological target: T1, Beta-lactamase; assay: […] counterscreen for selective VIM-2 inhibitors: dose response biochemical high throughput screening assay to identify inhibitors of IMP-1 metallo-beta-lactamase.
[17] = biological target: Beta-lactamase (Salmonella choleraesuis (strain SC-B67), UniProt Q5J463); assay: Epi-absorbance-based counterscreen for selective VIM-2 inhibitors: dose response biochemical high throughput screening assay to identify inhibitors of TEM-1 serine-beta-lactamase.
Beta-lactamase (Salmonella choleraesuis (strain SC-B67), UniProt Q5J463), sequence (Q5J463 whole entry, the tested form may be a part): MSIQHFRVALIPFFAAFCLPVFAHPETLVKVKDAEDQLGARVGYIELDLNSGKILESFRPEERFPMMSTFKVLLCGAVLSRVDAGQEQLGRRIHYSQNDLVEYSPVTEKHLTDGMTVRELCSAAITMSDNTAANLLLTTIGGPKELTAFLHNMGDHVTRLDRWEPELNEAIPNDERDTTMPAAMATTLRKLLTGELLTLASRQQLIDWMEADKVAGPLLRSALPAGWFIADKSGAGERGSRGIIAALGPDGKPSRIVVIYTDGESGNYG

[18] = inhibitors of HIV Env-driven cell fusion, dose response, cherry-pick (AID 652057); type: functional, cell-based
[19] = inhibitors of clade B AD8 Env fusion, dose response, cell-based, cherry-pick (AID 652062); type: functional;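 note: luciferase signal from cell-cell fusion driven by HIV-1 clade B AD8 Env; potency is for inhibitors of fusion seen as a drop in luminescence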
[20] = ZM109 Env clade C HIV-1 fusion inhibitors, dose response, HeLa effector, CEM target cells, luciferase, cherry-pick (AID 652058); type: functional, cell-based
[21] = off-target signal loss in HeLa-CEM21 co-culture – HeLa F-luc CTL cells, cherry-picked, counter-screen for HIV-1 Env fusion inhibitor project, dose response (AID 652040); type: functional, cell-based;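 note: potency for signal decrease marking cytotoxic or nonspecific inhibition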
[22] = intracellular Trypanosoma cruzi inhibitors in host cells – cell-based, plate reader, cherry-pick samples, set 3, dose response (AID 651818); type: functional;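 note: compounds incubated with infected cells for about four days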
[23] = biological target: T2, Endoribonuclease toxin MazF (Escherichia coli K-12, UniProt P0AE70); assay: MazF toxin RNase activators, dose response, biochemical, fluorescence, single-stranded RNA substrate, uHTS hits (AID 588481); type: functional
T2 sequence (P0AE70 whole entry): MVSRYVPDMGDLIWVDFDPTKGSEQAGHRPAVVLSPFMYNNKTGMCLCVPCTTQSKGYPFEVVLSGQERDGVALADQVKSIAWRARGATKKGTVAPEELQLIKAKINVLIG

[24] = biological target: T2, Endoribonuclease toxin MazF; assay: fluorescent RNA oligo signal without MazF, dose response, counter-screen for MazEF activator project, biochemical, fluorescence, single-stranded RNase substrate (AID 588502); type: functional
[25] = biological target: T3, Corticotropin-releasing factor receptor 2/Corticotropin-releasing factor-binding protein (Homo sapiens, UniProt P24387+Q13324); assay: activators of CRF receptor 2 with binding protein – uHTS hits, confirmation (AID 602473); type: functional; conditions: read-out: EC50_Mean
T3 sequence (Q13324 whole entry): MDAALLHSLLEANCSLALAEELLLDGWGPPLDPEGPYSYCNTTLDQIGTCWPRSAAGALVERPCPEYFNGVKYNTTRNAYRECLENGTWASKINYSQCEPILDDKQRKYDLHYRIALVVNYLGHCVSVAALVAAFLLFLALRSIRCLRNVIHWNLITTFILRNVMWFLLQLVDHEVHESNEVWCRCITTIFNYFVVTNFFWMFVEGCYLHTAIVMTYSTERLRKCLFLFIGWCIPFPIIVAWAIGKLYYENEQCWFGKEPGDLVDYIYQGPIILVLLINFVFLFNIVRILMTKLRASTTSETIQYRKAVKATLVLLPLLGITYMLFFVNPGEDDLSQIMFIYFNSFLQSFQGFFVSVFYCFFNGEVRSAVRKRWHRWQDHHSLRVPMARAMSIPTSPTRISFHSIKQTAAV
T3 sequence (P24387 whole entry): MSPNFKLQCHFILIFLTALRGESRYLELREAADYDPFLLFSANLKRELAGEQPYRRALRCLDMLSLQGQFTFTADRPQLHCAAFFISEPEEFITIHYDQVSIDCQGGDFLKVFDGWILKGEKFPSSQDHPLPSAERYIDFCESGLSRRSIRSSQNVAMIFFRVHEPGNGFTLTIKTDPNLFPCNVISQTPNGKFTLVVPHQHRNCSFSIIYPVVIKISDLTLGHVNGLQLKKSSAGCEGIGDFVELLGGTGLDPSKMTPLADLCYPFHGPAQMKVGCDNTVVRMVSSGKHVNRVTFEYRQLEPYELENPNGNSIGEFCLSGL

[26] = A Cell Based Secondary Assay To Explore Cytotoxicity of Compounds that Sensitize Mycobacterium Tuberculosis to Beta-Lactam Antibiotics.; type: functional

CC(=O)Nc1ccc(NC(=O)CSc2nnc(NC(=O)C3CC3)s2)cc1
IC50 [1]: 35.9 µM (inactive) | IC50 [2]: 9.26 µM (active) | IC50 [3]: 8.29 µM (active)

CCSc1nc2ccccc2n1C(=O)/C=C\c1ccc(OC)c(OC)c1
EC50 [4]: 0.24 µM (active) | IC50 [5]: > 80 µM (inactive) | EC50 [6]: 4.6 µM (inconclusive) | EC50 [7]: 5.15 µM (inconclusive) | EC50 [8]: 4.41 µM (inconclusive) | EC50 [9]: 8.04 µM (active)

O=C(Nc1ccc(C(F)(F)F)cc1)N1[C@@H]2CNC[C@H]1[C@H]2c1ccc(/C=C/c2ccccc2)cc1
AC50 [10]: 1.4 µM (active) | AC50 [11]: 1.76 µM (active) | AC50 [12]: 66.2 µM (active) | AC50 [13]: 2.46 µM (active) | AC50 [14]: 1.52 µM (active)

COc1ccc(NC(=O)CSc2nc(N)c(-c3ccccc3)c(O)n2)cc1
IC50 [1]: 35.9 µM (inactive) | IC50 [2]: 9.88 µM (active) | IC50 [3]: 2.36 µM (active)

Cc1cccc(Nc2nnc(SCC3CCCCO3)s2)c1C (centres undefined)
EC50 [4]: 12.4 µM (not active)

Cn1c(-c2sccc2OCc2ccc(Cl)cc2Cl)n[nH]c1=S
IC50 [15]: > 59.6 µM (inactive) | IC50 [16]: > 59.6 µM (inactive) | IC50 [17]: > 59.6 µM (inactive)

O=c1c2ccccc2nc(CN2CCCCCC2)n1-c1ccc(F)cc1
AC50 [18]: 20.9 µM (active) | AC50 [19]: 50.6 µM (active) | AC50 [20]: 30.2 µM (active) | AC50 [21]: 10.1 µM (active)

C[C@@H]1CN([C@@H](C)CO)C(=O)Cc2cc(NC(=O)Nc3ccc(C(F)(F)F)cc3)ccc2O[C@@H]1CN(C)Cc1ccc2c(c1)OCO2
AC50 [22]: 2.01 µM (active)

O=C(CCN1C(=O)/C(=C/c2ccccc2F)SC1=S)NCCCn1ccnc1
IC50 [15]: > 59.6 µM (inactive) | IC50 [16]: > 19.9 µM (inactive) | IC50 [17]: > 59.6 µM (inactive)

Cc1ccc(C)c(NC(=O)CSc2nc(O)c3c[nH]nc3n2)c1
IC50 [1]: 35.9 µM (inactive) | IC50 [2]: 29 µM (inactive) | IC50 [3]: 6.65 µM (active)

CCCCC(=O)Nc1ccc(C(=O)Nc2ccc(OC)cc2[N+](=O)[O-])cc1
EC50 [23]: > 99 µM (inactive) | EC50 [24]: > 99 µM (inactive) | EC50 [25]: 7.74 µM (active)

C/C(=N\NC(=O)c1ccccc1O)c1ccc(Br)s1
CC50 [26]: 24.4 µM (active)

CC(=O)Nc1ccc(NC(=O)CSc2ccc(-c3ccc(-n4ccnc4)cc3)nn2)cc1
IC50 [1]: 35.9 µM (inactive) | IC50 [2]: 35.9 µM (inactive) | IC50 [3]: 35.9 µM (inactive)

COc1ccccc1-c1cccc(-c2nc(C(=O)Nc3nccs3)cc3c2[C@H](CCO)N(C(C)=O)C3)c1
AC50 [10]: 2.08 µM (active) | AC50 [11]: 3.93 µM (active) | AC50 [12]: 66.8 µM (active) | AC50 [13]: 2.15 µM (active) | AC50 [14]: 1.96 µM (active)
